From patent US20250388604A1, “Compounds and Their Use as PDE4 Activators” (Mironid Limited, priority 2022, published 2025)

system: m-IMCD3 cells; assay: Inhibition of PGE2-stimulated in vitro cyst formation in m-IMCD3 cells; type: cell-based, mouse; settings: Mus musculus, mIMCD3, 144 h, 3 μM; mean cyst area, 100% for (DMSO + PGE2) and 0% for DMSO control; 6 days of culture; read-out: % Cyst area after incubation with 3 μM test compound
Description: HEK 293 and MDCK cells (Public Health England, Cell Culture Collections) were maintained in Dulbecco's Modified Eagle's Medium (DMEM) supplemented with 10% (v/v) fetal bovine serum (FBS) (Seralab), 2 mM L-glutamine and 100 U/mL penicillin streptomycin cocktail (ThermoFisher); termed complete media. Clonal HEK 293 cell lines were maintained in complete media supplemented with 0.6 mg/ml G418 (Enzo Life Sciences). Mouse inner medullary collecting duct (m-IMCD3) cells [American Type Culture Collection (ATCC)] were maintained in media consisting of DMEM/Hams F-12 50/50 Mix (DMEM F12; Corning) supplemented with penicillin streptomycin cocktail (100 U/mL) and FBS (10% v/v) (DMEM F12-10% FBS).
The mouse Inner Medullary Collecting Duct cell line (m-IMCD3) spontaneously forms cystic spheroids in 3D culture with a Type 1 collagen/Matrigel extracellular matrix. This process can be stimulated with agents which raise intracellular cAMP and is used as an in vitro model for the formation of cystic structures in the kidneys of patients with ADPKD.
Rat Collagen I (Fisher Scientific) is prepared on ice by neutralising with 1M NaOH and diluting with a 2× volume of DMEM/F12+10% FBS. This is mixed 1:1.1 with ice cold Matrigel (Corning) for coating plates (coating mix), and 1:0.93 with Matrigel for cell plating (plating mix).
The assay is conducted in the wells of a 96-well plate culture dish using a total volume of 130 μL of collagen/Matrigel/DMEM F12-10% FBS suspension in growth media for each matrix plug per individual well. Initially, 30 μL of collagen/Matrigel/DMEM F12-10% FBS (coating mix) is added into the well of a 96 well plate and the collagen is set to a gel by incubating at 37° C. for at least 15 minutes. A second layer of 100 μL collagen/Matrigel suspension (plating mix) containing m-IMCD3 cells (2.75×10^6 m-IMCD3 cells per 96-well plate) is layered over the coating mix and the collagen/Matrigel/cell mix again set to a gel by incubating at 37° C. Cell cultures are maintained at 37° C. in an atmosphere of 5% CO2, 95% air.
Between 18 and 24 h after plating, test compound(s) as DMSO stock solutions [0.1% (v/v) final DMSO concentration] and PGE2 (100 nM final concentration) in DMEM F12-10% FBS are added in quadruplicate wells per condition. Media, together with the test compound and PGE2 are replenished after 2 or 3 days. After 6 days of culture z stack images of the wells are captured using the Nikon Eclipse Ti2-E microscope. Nikon General Analysis software is used to measure the following parameters in each well: the mean cyst area, the number of cysts, and the total cyst area.
PDE4 long form activators inhibited in vitro cyst formation in m-IMCD3 cells. Data are shown in Table 4 as mean cyst area (%), compared to 100% for (DMSO+PGE2) and 0% for DMSO control.

SMILES	activity at 3 µM
COCCOc1ccccc1OCC(=O)N1CCc2nc(N3C4CCC3CNC4)sc2C1 [Example 129, 1-(2-(3,8-diazabicyclo[3.2.1]octan-8-yl)-6,7-dihydrothiazolo[5,4-c]pyridin-5(4H)-yl)-2-(2-(2-methoxyethoxy)phenoxy)ethan-1-one]	3%

same assay, conditions: Mus musculus, mIMCD3, 144 h, 10 μM; mean cyst area, 100% for (DMSO + PGE2) and 0% for DMSO control; 6 days of culture; read-out: % Cyst area after incubation with 10 μM test compound

SMILES	activity at 10 µM
CN1CC2CCC(C1)N2c1nc2c(s1)CN(C(=O)CC1CCCC1)CC2(C)C [Example 102, 2-cyclopentyl-1-(7,7-dimethyl-2-(3-methyl-3,8-diazabicyclo[3.2.1]octan-8-yl)-6,7-dihydrothiazolo[5,4-c]pyridin-5(4H)-yl)ethan-1-one]	-3%
CN1CC2CCC(C1)N2c1nc2c(s1)CN(C(=O)CC1CCC(F)(F)CC1)CC2(C)C [Example 103, 2-(4,4-difluorocyclohexyl)-1-(7,7-dimethyl-2-(3-methyl-3,8-diazabicyclo[3.2.1]octan-8-yl)-6,7-dihydrothiazolo[5,4-c]pyridin-5(4H)-yl)ethan-1-one]	-1%
CN1CCN(c2nc3c(s2)CN(C(=O)CC2CCC(F)(F)CC2)CC3(C)C)CC1 [Example 104, 2-(4,4-difluorocyclohexyl)-1-(7,7-dimethyl-2-(4-methylpiperazin-1-yl)-6,7-dihydrothiazolo[5,4-c]pyridin-5(4H)-yl)ethan-1-one]	0%
O=S(=O)(CC1CCCC1)N1CCc2nc(N3C4CCC3CNC4)sc2C1 [Example 107, 2-(3,8-diazabicyclo[3.2.1]octan-8-yl)-5-((cyclopentylmethyl)sulfonyl)-4,5,6,7-tetrahydrothiazolo[5,4-c]pyridine]	-16%
O=C(CC1CCCC1)N1CCc2nc(N3CCNCC3)sc2C1 [Example 109, 2-cyclopentyl-1-(2-(piperazin-1-yl)-6,7-dihydrothiazolo[5,4-c]pyridin-5(4H)-yl)ethan-1-one]	6%
O=C(COc1ccc(F)cc1)N1CCc2nc(N3CCNCC3)sc2C1 [Example 110, 2-(4-fluorophenoxy)-1-(2-(piperazin-1-yl)-6,7-dihydrothiazolo[5,4-c]pyridin-5(4H)-yl)ethan-1-one]	-5%
O=C(CC1CCCC1)N1CCc2nc(N3CCN[C@H](CO)C3)sc2C1 [Example 116, (S)-2-cyclopentyl-1-(2-(3-(hydroxymethyl)piperazin-1-yl)-6,7-dihydrothiazolo[5,4-c]pyridin-5(4H)-yl)ethan-1-one]	55%
O=C(CC1CCCC1)N1CCc2nc(N3CCN[C@@H](CO)C3)sc2C1 [Example 117, (R)-2-cyclopentyl-1-(2-(3-(hydroxymethyl)piperazin-1-yl)-6,7-dihydrothiazolo[5,4-c]pyridin-5(4H)-yl)ethan-1-one]	1%
CC1(C)CC(CC(=O)N2CCc3nc(N4C5CCC4CNC5)sc3C2)C1 [Example 119, 1-(2-(3,8-diazabicyclo[3.2.1]octan-8-yl)-6,7-dihydrothiazolo[5,4-c]pyridin-5(4H)-yl)-2-(3,3-dimethylcyclobutyl)ethan-1-one]	-10%
CC1(C)CCCN1C(=O)N1CCc2nc(N3C4CCC3CNC4)sc2C1 [Example 120, (2-(3,8-diazabicyclo[3.2.1]octan-8-yl)-6,7-dihydrothiazolo[5,4-c]pyridin-5(4H)-yl)(2,2-dimethylpyrrolidin-1-yl)methanone]	2%
CC1(C)CCN(C(=O)N2CCc3nc(N4C5CCC4CNC5)sc3C2)C1 [Example 121, (2-(3,8-diazabicyclo[3.2.1]octan-8-yl)-6,7-dihydrothiazolo[5,4-c]pyridin-5(4H)-yl)(3,3-dimethylpyrrolidin-1-yl)methanone]	0%
O=C(N1CCc2nc(N3C4CCC3CNC4)sc2C1)N1CCC2(CCCC2)C1 [Example 122, (2-(3,8-diazabicyclo[3.2.1]octan-8-yl)-6,7-dihydrothiazolo[5,4-c]pyridin-5(4H)-yl)(2-azaspiro[4.4]nonan-2-yl)methanone]	-8%
O=C(N1CCc2nc(N3C4CCC3CNC4)sc2C1)N1CCC2(CCC2)C1 [Example 123, (2-(3,8-diazabicyclo[3.2.1]octan-8-yl)-6,7-dihydrothiazolo[5,4-c]pyridin-5(4H)-yl)(6-azaspiro[3.4]octan-6-yl)methanone]	-4%
CC1(NC(=O)N2CCc3nc(N4C5CCC4CNC5)sc3C2)CCC1 [Example 124, 2-(3,8-diazabicyclo[3.2.1]octan-8-yl)-N-(1-methylcyclobutyl)-6,7-dihydrothiazolo[5,4-c]pyridine-5(4H)-carboxamide]	-12%
CC1(NC(=O)N2CCc3nc(N4C5CCC4CNC5)sc3C2)CCCC1 [Example 125, 2-(3,8-diazabicyclo[3.2.1]octan-8-yl)-N-(1-methylcyclopentyl)-6,7-dihydrothiazolo[5,4-c]pyridine-5(4H)-carboxamide]	-11%
CC1(CC(=O)N2CCc3nc(N4C5CCC4CNC5)sc3C2)CCC1 [Example 130, 1-(2-(3,8-diazabicyclo[3.2.1]octan-8-yl)-6,7-dihydrothiazolo[5,4-c]pyridin-5(4H)-yl)-2-(1-methylcyclobutyl)ethan-1-one]	-5%
COC(C(=O)N1CCc2nc(N3C4CCC3CNC4)sc2C1)c1ccc(F)cc1 (stereo not drawn) [Example 131, 1-(2-(3,8-diazabicyclo[3.2.1]octan-8-yl)-6,7-dihydrothiazolo[5,4-c]pyridin-5(4H)-yl)-2-(4-fluorophenyl)-2-methoxyethan-1-one]	-9%
O=C(C(O)c1ccc(F)cc1)N1CCc2nc(N3C4CCC3CNC4)sc2C1 (stereo not drawn) [Example 132, 1-(2-(3,8-diazabicyclo[3.2.1]octan-8-yl)-6,7-dihydrothiazolo[5,4-c]pyridin-5(4H)-yl)-2-(4-fluorophenyl)-2-hydroxyethan-1-one]	-6%
O=C(C1CCCO1)N1CCc2nc(N3C4CCC3CNC4)sc2C1 (stereo not drawn) [Example 133, (2-(3,8-diazabicyclo[3.2.1]octan-8-yl)-6,7-dihydrothiazolo[5,4-c]pyridin-5(4H)-yl)(tetrahydrofuran-2-yl)methanone]	19%
COC1(CC(=O)N2CCc3nc(N4C5CCC4CNC5)sc3C2)CCCC1 [Example 134, 1-(2-(3,8-diazabicyclo[3.2.1]octan-8-yl)-6,7-dihydrothiazolo[5,4-c]pyridin-5(4H)-yl)-2-(1-methoxycyclopentyl)ethan-1-one]	-4%
COCC1(CC(=O)N2CCc3nc(N4C5CCC4CNC5)sc3C2)CCCC1 [Example 135, 1-(2-(3,8-diazabicyclo[3.2.1]octan-8-yl)-6,7-dihydrothiazolo[5,4-c]pyridin-5(4H)-yl)-2-(1-(methoxymethyl)cyclopentyl)ethan-1-one]	-6%
O=C(Cc1cnccn1)N1CCc2nc(N3C4CCC3CNC4)sc2C1 [Example 136, 1-(2-(3,8-diazabicyclo[3.2.1]octan-8-yl)-6,7-dihydrothiazolo[5,4-c]pyridin-5(4H)-yl)-2-(pyrazin-2-yl)ethan-1-one]	18%
O=C(CC1CCC(F)(F)C1)N1CCc2nc(N3C4CCC3CNC4)sc2C1 (stereo not drawn) [Example 137, 1-(2-(3,8-diazabicyclo[3.2.1]octan-8-yl)-6,7-dihydrothiazolo[5,4-c]pyridin-5(4H)-yl)-2-(3,3-difluorocyclopentyl)ethan-1-one]	-4%
COc1ccccc1OCC(=O)N1CCc2nc(N3C4CCC3CNC4)sc2C1 [Example 138, 1-(2-(3,8-diazabicyclo[3.2.1]octan-8-yl)-6,7-dihydrothiazolo[5,4-c]pyridin-5(4H)-yl)-2-(2-methoxyphenoxy)ethan-1-one]	0%
COc1ccccc1CC(=O)N1CCc2nc(N3C4CCC3CNC4)sc2C1 [Example 139, 1-(2-(3,8-diazabicyclo[3.2.1]octan-8-yl)-6,7-dihydrothiazolo[5,4-c]pyridin-5(4H)-yl)-2-(2-methoxyphenyl)ethan-1-one]	-1%
COc1cc(F)ccc1CC(=O)N1CCc2nc(N3C4CCC3CNC4)sc2C1 [Example 140, 1-(2-(3,8-diazabicyclo[3.2.1]octan-8-yl)-6,7-dihydrothiazolo[5,4-c]pyridin-5(4H)-yl)-2-(4-fluoro-2-methoxyphenyl)ethan-1-one]	0%
